From ChEMBL document CHEMBL1201862, “PubChem BioAssay data set” (2004) come the findings set out here.

In one test the target is Genome polyprotein (dengue virus type 2, UniProt P29990). The test is described as follows: Dengue-2 NS5 methyltransferase inhibitors, primary screen, biochemical, confirmation dose response (AID 588689). The format is functional.
Test [1] has as its target RNA-editing ligase 1, mitochondrial (Trypanosoma brucei brucei, UniProt P86926). The test is described as follows: TbREL1 ligase inhibitors, dose response, biochemical, fluorescence, Trypanosoma brucei (AID 1117295). The format is functional.
Test [2] can be described thus: inhibitors of PGC1a acetylation in cells, dose response, cell-based, cherry-picked samples (AID 720514).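 Further: potency may reflect raised or lowered acetylation signal.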 The format is functional.
Test [3] has as its target Eukaryotic translation initiation factor 4E (Mus musculus, UniProt P63073). The test is described as follows: eIF4E–eIF4G protein interaction inhibitors, dose response, biochemical, TR-FRET (AID 855).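 Further: potency for disrupting eIF4E binding to eIF4GI seen as loss of FRET.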 The format is functional. (TR-FRET usually uses a lanthanide donor and a delayed reading to cut background.)
A short description of test [4]: P. falciparum ATP4 D1247Y mutant growth inhibitors, dose response, NITD609-resistant line, SYBR Green, dry powder (AID 1159571).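 Further: parasites synchronized at ring stage by sorbitol before testing.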 The format is functional, cell-based.
Test [5] is described as follows: P. falciparum Dd2 growth inhibitors, dose response, SYBR Green, dry powder samples (AID 1159566).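 Further: potency for growth inhibition with lower SYBR green DNA signal.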 The format is functional, cell-based.
Test [6] can be described thus: HepG2 cell cytotoxicity, dose response, cytotoxicity control, plate reader, dry powder samples (AID 1159569).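 Further: inhibitor potency with signal falling toward the positive control level.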 The format is functional, cell-based.
Test [7] is described as follows: P. falciparum 3D7-ScDHODH growth inhibitors, dose response, SYBR Green, dry powder samples (AID 1159570).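 Further: parasite growth measured after 72 hours of compound exposure.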 The format is functional, cell-based.
A short description of test [8]: P. falciparum Dd2 growth inhibitors, dose response, SYBR Green, cherry-picked samples (AID 1159567). The format is functional, cell-based.
Test [9] is described as follows: P. falciparum Dd2 growth inhibitors, dose response, SYBR Green, dry powder samples, set 9 (AID 1159568). The format is functional, cell-based.
Test [10] concerns the target Potassium channel subfamily K member 9 (Homo sapiens, UniProt Q9NPC2). The test is described as follows: TASK3 (KCNK9) channel inhibitors, thallium flux, SAR follow-up, selectivity assay for TASK1 inhibitor project, cell-based, FluxOR thallium flux, concentration-response (AID 652211).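 Further: potency is for inhibitors of the channel.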 The format is functional.
The target in test [11] is Potassium channel subfamily K member 3 (Homo sapiens, UniProt O14649). The test is described as follows: TASK1 (KCNK3) potassium channel inhibitors, SAR follow-up, CHO cells, FluxOR thallium flux (AID 652212). The format is functional.
The target in a further test is ELAV-like protein 1 (Homo sapiens, UniProt Q15717). The test is described as follows: Identify HuR specific inhibitors. The format is functional.
The nature of test [12]: HEK293 Cytotoxicity Assay Measured in Cell-Based System Using Plate Reader - 7071-01_Inhibitor_Dose_CherryPick_Activity_Set2. The format is functional.
A further test concerns HEK293. The test is described as follows: HEK293T cell cytotoxicity, dose response, cytotoxicity control, ATP luminescence, cherry-pick samples (AID 687005).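 Further: cells exposed to compound for 48 hours.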 The format is functional, cell-based. The note with it: Homo sapiens.
In test [13] the target is NAD-dependent protein deacylase sirtuin-5, mitochondrial (Homo sapiens, UniProt Q9NXA8). The test is described as follows: SIRT5 desuccinylase inhibitors, dose response, biochemical, fluorescence imaging, cherry-pick, set 5 (AID 720591).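 Further: desuccinylation of succinyl peptide AMC substrate read as fluorescence after trypsin release; potency of inhibitors that lower fluorescence and may act on trypsin instead.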

The source made the active and inactive calls. Bounds are passed on as bounds.

Chain of Potassium channel subfamily K member 9 (Q9NPC2 whole entry): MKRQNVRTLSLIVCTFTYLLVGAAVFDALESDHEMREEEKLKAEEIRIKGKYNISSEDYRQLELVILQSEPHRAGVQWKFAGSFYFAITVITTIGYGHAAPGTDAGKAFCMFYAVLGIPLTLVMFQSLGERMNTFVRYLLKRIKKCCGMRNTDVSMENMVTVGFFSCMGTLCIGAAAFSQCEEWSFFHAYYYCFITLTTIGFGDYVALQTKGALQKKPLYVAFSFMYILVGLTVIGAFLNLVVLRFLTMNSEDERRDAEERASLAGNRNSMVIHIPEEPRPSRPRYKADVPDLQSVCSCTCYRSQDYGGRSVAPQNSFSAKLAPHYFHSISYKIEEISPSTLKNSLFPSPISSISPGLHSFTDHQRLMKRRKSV
Chain of Potassium channel subfamily K member 3 (O14649 whole entry): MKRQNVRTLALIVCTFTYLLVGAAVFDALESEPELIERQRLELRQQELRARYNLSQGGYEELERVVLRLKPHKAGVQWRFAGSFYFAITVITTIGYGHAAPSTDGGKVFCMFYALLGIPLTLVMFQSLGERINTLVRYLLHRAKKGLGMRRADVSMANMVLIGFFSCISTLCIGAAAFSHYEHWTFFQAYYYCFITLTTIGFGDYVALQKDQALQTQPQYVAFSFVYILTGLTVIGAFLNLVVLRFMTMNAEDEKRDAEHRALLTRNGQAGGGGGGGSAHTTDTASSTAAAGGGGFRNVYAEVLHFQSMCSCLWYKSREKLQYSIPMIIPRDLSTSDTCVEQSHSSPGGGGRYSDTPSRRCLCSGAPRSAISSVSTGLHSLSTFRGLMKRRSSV
Chain of ELAV-like protein 1 (Q15717 whole entry): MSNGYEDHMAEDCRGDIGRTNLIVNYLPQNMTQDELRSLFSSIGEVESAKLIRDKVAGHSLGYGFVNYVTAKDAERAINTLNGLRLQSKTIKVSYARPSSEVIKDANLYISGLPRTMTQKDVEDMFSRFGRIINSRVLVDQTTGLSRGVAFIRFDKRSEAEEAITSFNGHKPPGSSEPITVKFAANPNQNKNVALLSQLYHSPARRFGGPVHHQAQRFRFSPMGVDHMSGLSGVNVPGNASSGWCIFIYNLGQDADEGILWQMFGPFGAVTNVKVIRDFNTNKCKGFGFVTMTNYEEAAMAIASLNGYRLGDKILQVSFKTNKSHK
Chain of Genome polyprotein (P29990 2492-3391 limits assumed): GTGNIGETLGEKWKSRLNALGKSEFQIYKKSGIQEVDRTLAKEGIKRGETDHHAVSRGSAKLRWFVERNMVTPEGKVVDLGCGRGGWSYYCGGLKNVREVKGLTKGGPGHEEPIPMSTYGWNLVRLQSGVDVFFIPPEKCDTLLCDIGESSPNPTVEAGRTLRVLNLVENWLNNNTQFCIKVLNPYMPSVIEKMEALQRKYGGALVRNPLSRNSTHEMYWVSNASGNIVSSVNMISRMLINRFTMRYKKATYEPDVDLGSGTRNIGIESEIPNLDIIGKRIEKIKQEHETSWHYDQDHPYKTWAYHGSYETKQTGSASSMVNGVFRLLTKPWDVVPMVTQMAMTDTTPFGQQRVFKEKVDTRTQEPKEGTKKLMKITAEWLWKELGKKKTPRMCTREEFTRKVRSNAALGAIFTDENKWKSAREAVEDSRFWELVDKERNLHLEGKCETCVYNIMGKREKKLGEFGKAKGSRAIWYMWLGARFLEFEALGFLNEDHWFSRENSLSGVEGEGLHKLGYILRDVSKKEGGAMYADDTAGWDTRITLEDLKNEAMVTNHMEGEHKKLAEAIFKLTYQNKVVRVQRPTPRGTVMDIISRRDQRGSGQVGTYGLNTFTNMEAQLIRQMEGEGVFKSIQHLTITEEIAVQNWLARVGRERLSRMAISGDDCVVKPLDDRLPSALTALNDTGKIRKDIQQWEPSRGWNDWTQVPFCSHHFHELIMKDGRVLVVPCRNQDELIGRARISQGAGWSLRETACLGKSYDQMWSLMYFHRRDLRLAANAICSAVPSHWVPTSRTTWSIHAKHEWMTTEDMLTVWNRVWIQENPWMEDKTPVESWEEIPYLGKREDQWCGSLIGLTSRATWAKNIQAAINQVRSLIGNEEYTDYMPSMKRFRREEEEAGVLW
Chain of RNA-editing ligase 1, mitochondrial (P86926 whole entry): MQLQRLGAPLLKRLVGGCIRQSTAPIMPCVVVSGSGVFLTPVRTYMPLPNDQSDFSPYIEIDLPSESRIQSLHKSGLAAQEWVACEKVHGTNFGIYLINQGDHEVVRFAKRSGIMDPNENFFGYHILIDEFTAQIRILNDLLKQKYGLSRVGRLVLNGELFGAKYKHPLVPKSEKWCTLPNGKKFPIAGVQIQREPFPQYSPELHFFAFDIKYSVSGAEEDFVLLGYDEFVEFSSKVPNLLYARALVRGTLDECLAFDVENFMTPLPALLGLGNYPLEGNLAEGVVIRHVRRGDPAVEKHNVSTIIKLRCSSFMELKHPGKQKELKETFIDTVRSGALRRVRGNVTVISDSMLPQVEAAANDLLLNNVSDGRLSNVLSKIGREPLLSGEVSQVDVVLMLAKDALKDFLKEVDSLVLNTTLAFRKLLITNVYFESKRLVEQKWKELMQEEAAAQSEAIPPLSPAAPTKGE
Chain of NAD-dependent protein deacylase sirtuin-5, mitochondrial (Q9NXA8 whole entry): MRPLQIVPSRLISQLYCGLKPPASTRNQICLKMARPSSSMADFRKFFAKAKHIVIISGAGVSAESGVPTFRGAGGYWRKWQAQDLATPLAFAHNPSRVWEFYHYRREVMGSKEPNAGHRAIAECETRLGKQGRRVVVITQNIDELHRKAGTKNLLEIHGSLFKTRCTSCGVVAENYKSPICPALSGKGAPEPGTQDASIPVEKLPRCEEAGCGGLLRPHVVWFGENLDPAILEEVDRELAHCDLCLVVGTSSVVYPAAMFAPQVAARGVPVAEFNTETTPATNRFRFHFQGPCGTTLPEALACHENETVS
Chain of Eukaryotic translation initiation factor 4E (P63073 whole entry): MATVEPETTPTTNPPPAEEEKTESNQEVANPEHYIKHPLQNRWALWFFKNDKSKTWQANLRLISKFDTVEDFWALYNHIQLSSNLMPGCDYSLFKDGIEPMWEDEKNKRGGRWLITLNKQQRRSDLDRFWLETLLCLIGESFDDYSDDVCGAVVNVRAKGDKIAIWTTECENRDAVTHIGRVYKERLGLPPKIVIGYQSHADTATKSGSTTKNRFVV

As usually defined, the IC50 is the midpoint of a concentration-inhibition curve. In the case of `O=C(CCN1C(=O)S/C(=C/c2ccccc2)C1=O)Nc1ccc(O)c(C(=O)O)c1`, the IC50 on Genome polyprotein was 91.6 µM (active); in test [1], > 96.6 µM (inactive).
A word on the AC50: it is the concentration giving half of the maximal activity seen. For the compound `COCCSc1ccccc1C(=O)Nc1cc(C)on1`, the AC50 in test [2] was 1.06 µM (active). For the same compound, the IC50 in test [3] is > 64 µM (inactive).
Consider `C/C=C/c1ccc([C@H]2[C@@H](CO)N(CC3CCCCC3)[C@@H]2CNC(C)C)cc1`, for which the AC50 is 0.294 µM (active) in [4]; 0.231 µM (active) in test [5]; 49.3 µM (active) in [6]; 0.396 µM (active) in test [7]; 0.494 µM (active) in test [8]; 0.316 µM (active) in [9].
Turning to `CCOc1ccccc1NC(=O)c1cccc(NC(=O)c2ccccc2OC(F)(F)F)c1`, the concentration for half-maximal inhibition (IC50) in test [10] was 0.8 µM (active); in test [11], 0.114 µM (active).
For the compound `CSC1=NC(=O)/C(=N\Nc2ccc([As](=O)(O)O)cc2)C(N)=N1`, the IC50 on ELAV-like protein 1 is 2.7 µM (inactive).
Regarding `C[C@H]1CN([C@@H](C)CO)S(=O)(=O)c2ccc(Br)cc2O[C@H]1CN(C)S(=O)(=O)c1ccccc1F`, the half-maximal activity concentration (AC50) (in [12]; with HEK293) was 37.9 µM (active) throughout.
Turning to `Nc1nc(CSc2ccc(Cl)cc2)nc(N2CCCCC2)n1`, the AC50 in test [13] is 26.5 µM (active).
